According to US20230302131A1, “MPC INHIBITION FOR PRODUCING T-CELLS WITH A MEMORY PHENOTYPE” (UNIVERSITÉ DE LAUSANNE, priority 2020, published 2023):
Entries after “also recorded” stand apart in the source; their conditions may differ.

What was measured:
OT1 T cells = test: RNA sequencing of OT1 T cells; type: cell-based, mouse; details: day 7; compared to DMSO
Procedure: To evaluate the effects of MPC inhibition on T cell differentiation, OT1 splenocytes were cultured in the presence of 1 μg/ml ovalbumin-derived N4 (SIINFEKL) peptide, 100 IU/ml recombinant human IL-2 (rhIL-2) and the MPC inhibitor (MPCi) UK5099 at 75 μM or control DMSO for 3 days. The inhibitor or DMSO was then washed away and the cells were cultured for 4 more days in the presence of 100 IU/ml IL-2 and 10 ng/ml rhIL-7 (FIG. 1A). […] Thus, the increase in the memory markers upon MPCi in vitro treatment occurs at the transcriptional level.
[…] Purity-filtered reads were adapters and quality trimmed with Cutadapt (v. 1.8, Martin 2011). Reads matching to ribosomal RNA sequences were removed with fastq_screen (v. 0.9.3). Remaining reads were further filtered for low complexity with reaper (v. 15-065, Davis et al. 2013). Reads were aligned against Mus musculus.GRCm38.86 genome using STAR (v. 2.5.2b, Dobin et al. 2013). The number of read counts per gene locus was summarized with htseq-count (v. 0.6.1, Anders et al. 2014) using Mus musculus.GRCm38.86gene annotation. Quality of the RNA-seq data alignment was assessed using RSeQC (v. 2.3.7, Wang et al. 2012). Reads were also aligned to the Mus musculus.GRCm38.86 transcriptome using STAR (v. 2.5.2b, Dobin et al. 2013) and the estimation of the isoforms abundance was computed using RSEM (v. 1.2.31, Li and Dewey 2011). Statistical analysis was performed for genes in R (R version 3.4.0). An analysis with all genes, including mitochondria, was done. Genes with less than one count per million in all samples were filtered out. Library sizes were scaled using TMM normalization (EdgeR package version 3.14.0; Robinson et al. 2010) and log-transformed with EdgeR cpm function.
Differential expression was computed with limma (Ritchie et al. 2015) by fitting the samples into a linear model using all conditions as factors and correcting for batch effect by introducing factors for the replicates (=paired analysis).

OT1 splenocytes = test: Metabolomics, acetyl-CoA and 13C tracing by mass spectrometry; type: cell-based, mouse
Excerpt: Mechanistically, it was hypothesized by the inventors that epigenetic processes might underlie the observed long-term memory phenotype and anti-tumor activity upon metabolic intervention with MPCi. […] Since acetyl-CoA is the acetyl donor for the acetylation of proteins, amongst which also histones, histone post-translational modifications were examined that are known to make chromatin accessible to transcription factors, a characteristic of memory T cells. […] These are marks known to open chromatin and make it accessible for transcription factor docking. […] Amongst those were Sell, Tcf7 and Ccr7, thereby correlating accessible chromatin with increased mRNA copies (FIG. 3E and see above).
OT1 splenocytes were activated and cultured as described above. After 66 hours, the cells were collected and the medium was replaced with glucose- and glutamine-free RPMI, supplemented with 10% dialyzed FBS, 1% P/S, 10 mM HEPES, 50 μM β-mercaptoethanol and either 11 mM normal glucose or 11 mM U-^13C6-glucose (Cambridge Isotopes) with respectively 4 mM ^13C5-glutamine (Cambridge Isotopes or 4 mM normal L-glutamine. After 6 hours labelling at 37° C., cells were collected and lysed in Methanol. Next Chloroform was added, and after centrifugation, the fraction containing the polar metabolites was collected and dried on a SpeedVac. Samples were then resuspended and loaded on a mass spectrometer. The spectra of AcetylCoA were analyzed with the M+0 representing the unlabeled fraction, and the M+2 representing the Acetyl group derived from the ^13C-labelled substrate (glucose or glutamine).

[1] = system: transferred OT1 CD8 T cells; ovalbumine-expressing B16 melanoma; test: Vaccination model with UK5099 as vaccine adjuvant, then B16 melanoma challenge; type: in vivo, mouse; details: vs DMSO; for control of B16 tumor growth after challenge: 0.5 mg s.c. at d0 and d2, B16 challenge 40 days post-vaccination, tumor growth and weight
Excerpt: One of the main goals of preventive and therapeutic vaccination in the context of pathogen infection and cancer is the establishment of a potent memory CD8 T cell pool. Since it was observed that MPC inhibition during in vitro priming of antigen-specific CD8 T cells increases their memory formation, it was investigated whether the MPCi could be used as a vaccine adjuvant. 10^5 naïve OT1 CD8 T cells were […] in healthy mice and the mice were subsequently vaccinated by a subcutaneous injection of 50 μg CpG and 10 μg SIINFEKL containing additionally 0.5 mg UK5099 or and equal volume of DMSO as control. 48 hours later, the mice received another subcutaneous injection of 0.5 mg UK5099 or and equal volume of DMSO (FIG. 4A). […] It was investigated whether this would render them better prepared for a subsequent antigen challenge, and injected 10^5 ovalbumine-expressing B16 melanoma cells s.c. in the flank of the mice at 40 days post-vaccination (FIG. 4A).
Naïve CD8 T cells were isolated from OT1 spleens (negative selection, Stem Cell Technologies). 1×10^5 T cells were i.v. transferred in WT C57BL/6 mice, followed by a subcutaneous injection of the vaccine, consisting of 10 μg SIINFEKL peptide, 50 μg CpG and 0.5 mg UK5099 or DMSO diluted in a total of 100 μl PBS per mouse. 2 days post-vaccination, mice received a second dose of s.c. 0.5 mg UK5099 or DMSO. After 2 weeks, blood was collected from the tail vein and analyzed by flow cytometry. 40 days post-vaccination, mice were challenged by an s.c. injection of 1×10^5 SIINFEKL-expressing B16 melanoma cells. 17 days later, mice were sacrificed and the tumor was dissected.

human CD4 T cells = test: Human cord blood PBMC culture, CD62L in CD3-pos/CD8-neg (CD4) T cells; type: cell-based; details: 25 μM; day 11; vs DMSO
Procedure: Peripheral blood mononuclear cells were isolated from fresh umbilical vein cord blood on a Percoll gradient. PBMCs were then cultured in RPMI supplemented with 10% human serum. 10^4 PBMC's were seeded per well in a round bottom 96-well plate and activated with anti-CD3/CD28 beads at a 1:2 cell:bead ratio and 300 U/ml rhIL-2, in the presence of 25 μM UK5099 or DMSO. Cells were regularly split and CD62L expression was determined by flow cytometry on day 11.
CD62L expression in human CD4 T cells was also analyzed. Human cord blood PBMCs were cultured and activated as described before, in the presence of 25p M UK5099 or DMSO control. About 98% of the cells in culture on day 11 are CD3-positive. Since CD3 is exclusively expressed on CD4 and CD8 T cells, we can deduct that all CD3-positive, CD8-negative must be CD4 T cells. When analyzing the CD3-pos/CD8-neg population we observed that CD62L expression is increased upon MPCi treatment (FIG. 5D).

Structure (SMILES): N#CC(=Cc1cn(-c2ccccc2)c2ccccc12)C(=O)O [UK5099, 2-cyano-3-(1-phenyl-1H-indol-3-yl)-2-propenoic acid]
- Ccr7 expression, RNA sequencing (OT1 T cells): increased
- Sell (CD62L) expression, RNA sequencing (OT1 T cells): at least 1.5 fold
- Tcf7 expression, RNA sequencing (OT1 T cells): increased
- 13C-glutamine incorporation into acetyl-CoA (OT1 splenocytes; 6 hours labelling): incorporated dramatically more
- 13C-labeled glucose incorporation into acetyl-CoA (OT1 splenocytes; 6 hours labelling): incorporating less
- total acetyl-CoA levels (OT1 splenocytes; mass spectrometry, vs DMSO): strong increase
- control of B16 tumor growth after challenge [1]: protects against tumor growth
- control of B16 tumor growth after challenge ([1]; listed as MPCi): much better in controlling the tumor growth
- proportion of transferred OT1 CD8 T cells that formed memory precursor cells ([1]; 0.5 mg s.c. at d0 and d2 with CpG and SIINFEKL, blood 14 days after vaccination): drives a memory phenotype; also recorded: increased proportion
- CD62L expression in human CD3-pos/CD8-neg (CD4) T cells (human CD4 T cells): increased
